Measured values from patent publication US7030242B2, “Selective inhibition of aggrecanase in osteoarthritis treatment” (Pfizer Inc, priority 1999, dated 2006).
pIC50: −log10 of the molar value. Read-outs that look alike come from different tables or passages of the source.

Key:
[1] = molecular target: T1, TACE (Homo sapiens, UniProt P78536); experiment: Inhibition of soluble TNF-α production (TACE whole blood assay); assay type: cell-based; conditions: Table 2, read-out: TACE (IC50 class)
T1 construct: Human mononuclear cells are isolated from anti-coagulated human blood; endogenous in cells; host or cells: human peripheral blood mononuclear cells, LPS stimulated
Procedure: Inhibition of Soluble TNF-α Production (TACE Whole Blood Assay)
This assay is used in the invention to measure the potency (IC50s) of compounds for TACE.
Human mononuclear cells are isolated from anti-coagulated human blood using a one-step Ficoll-hypaque separation technique. (2) The mononuclear cells are washed three times in Hanks balanced salt solution (HBSS) with divalent cations and re-suspended to a density of 2×10^6/ml in HBSS containing 1% BSA.
180 μL of the cell suspension was aliquoted into flat bottom 96 well plates (Costar). Additions of compounds and LPS (100 ng/ml final concentration) gives a final volume of 200 μL. All conditions are performed in triplicate. After about a four hour incubation at about 37° C. in an humidified CO2 incubator, plates are removed and centrifuged (about 10 minutes at approximately 250×g) and the supernatants removed and assayed for TNF-α using the R&D ELISA Kit.

[2] = system: aggrecanase; experiment: Aggrecanase chondrocyte assay (35S-proteoglycan release, IL-1 stimulated); assay type: cell-based, porcine
Procedure: Aggrecanase Chondrocyte Assay
This assay is used in the invention to measure the potency (IC50s) of compounds for aggrecanase.
Primary porcine chondrocytes from articular joint cartilage are isolated by sequential trypsin and collagenase digestion followed by collagenase digestion overnight and are plated at 2×10^5 cells per well into 48 well plates with 5 μCi/ml ^35S (1000 Ci/mmol) sulphur in type I collagen coated plates. Cells are allowed to incorporate label into their proteoglycan matrix (approximately 1 week) at 37° C., under an atmosphere of 5% CO2.
The night before initiating the assay, chondrocyte monolayers are washed two times in DMEM/1% PSF/G and then allowed to incubate in fresh DMEM/1% FBS overnight.
The following morning chondrocytes are washed once in DMEM/1% PSF/G. The final wash is allowed to sit on the plates in the incubator while making dilutions. Media and dilutions can be made as described in the Table I below.
Plates are labeled and only the interior 24 wells of the plate are used. On one of the plates, several columns are designated as IL-1 (no drug) and Control (no IL-1, no drug). These control columns are periodically counted to monitor 35S-proteoglycan release. Control and IL-1 media are added to wells (450 μl) followed by compound (50 μl) so as to initiate the assay. Plates are incubated at 37° C., with a 5% CO2 atmosphere.
At 40–50% release (when CPM from IL-1 media is 4–5 times control media) as assessed by liquid scintillation counting (LSC) of media samples, the assay is terminated (about 9 to about 12 hours). Media is removed from all wells and placed in scintillation tubes. Scintillate is added and radioactive counts are acquired (LSC). To solubilize cell layers, 500 μL of papain digestion buffer (0.2 M Tris, pH 7.0, 5 mM EDTA, 5 mM DTT, and 1 mg/ml papain) is added to each well. Plates with digestion solution are incubated at 60° C. overnight. The cell layer is removed from the plates the next day and placed in scintillation tubes. Scintillate is then added, and samples counted (LSC).
The percent of released counts from the total present in each well is determined. Averages of the triplicates are made with control background subtracted from each well.

[3] = molecular target: T2, Human recombinant collagenase-1 (Homo sapiens, UniProt P03956); experiment: Inhibition of human collagenase-1 (recombinant collagenase-1 assay); assay type: biochemical; conditions: Table 2, read-out: MMP-1 (IC50 class)
T2 sequence (P03956 100-469): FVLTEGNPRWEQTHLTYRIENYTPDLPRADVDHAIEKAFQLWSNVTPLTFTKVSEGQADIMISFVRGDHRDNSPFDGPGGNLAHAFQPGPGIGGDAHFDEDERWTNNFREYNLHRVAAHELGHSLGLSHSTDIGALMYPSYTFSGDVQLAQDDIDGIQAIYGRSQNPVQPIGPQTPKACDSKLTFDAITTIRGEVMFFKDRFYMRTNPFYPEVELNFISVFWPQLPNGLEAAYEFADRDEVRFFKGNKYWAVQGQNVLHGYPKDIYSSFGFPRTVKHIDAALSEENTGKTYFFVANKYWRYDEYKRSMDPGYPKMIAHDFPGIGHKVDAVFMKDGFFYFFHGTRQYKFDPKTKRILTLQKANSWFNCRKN
Procedure: Inhibition of Human Collagenase-1 (Recombinant Collagenase-1 Assay)
This assay is used in the invention to measure the potency (IC50s) of compounds for collagenase-1.
Human recombinant collagenase-1 is activated with trypsin. The amount of trypsin is optimized for each lot of collagenase-1, but a typical reaction uses the following ratio: 5 mg trypsin per 100 mg of collagenase.
Stock solutions (10 mM) of inhibitors are made up in dimethylsulfoxide and then diluted using the following scheme: • 10 mM------>120 μM------>12 μM------>1.2 μM------>0.12 μM
Twenty-five microliters of each concentration is then added in triplicate to appropriate wells of a 96 well microfluor plate. The final concentration of inhibitor will be a 1:4 dilution after addition of enzyme and substrate. Positive controls (enzyme, no inhibitor) are set up in wells D7–D12 and negative controls (no enzyme, no inhibitors) are set in wells D1–D6.
Collagenase-1 is diluted to 240 ng/ml and […] is then added to appropriate wells of the microfluor plate. Final concentration of collagenase in the assay is 60 ng/ml.
Substrate (DNP-Pro-Cha-Gly-Cys(Me)-His-Ala-Lys(NMA)-NH2) is made as a 5 mM stock in dimethylsulfoxide and then diluted to 20 μM in assay buffer. The assay is initiated by the addition of […] substrate per well of the microfluor plate to give a final concentration of 10 μM.
Fluorescence readings (360 nm excitation, 460 nm emission) are taken at time 0 and then at about 20 minute intervals. The assay is conducted at a temperature of about 20 to about 25° C., preferably about 23° C. with a typical assay time of about 3 hours.
Fluorescence versus time is then plotted for both the blank and collagenase containing samples (data from triplicate determinations is averaged). A time point that provides a good signal (at least five fold over the blank) and that is on a linear part of the curve (usually around 120 minutes) is chosen to determine IC50 values. The zero time is used as a blank for each compound at each concentration and these values are subtracted from the 120 minute data. Data is plotted as inhibitor concentration versus % control (inhibitor fluorescence divided by fluorescence of collagenase alone ×100).

[4] = molecular target: Human recombinant collagenase-3 (Homo sapiens, UniProt P45452); experiment: Inhibition of human collagenase-3 (recombinant collagenase-3 assay); assay type: biochemical
Procedure: Inhibition of Human Collagenase-3 (Recombinant Collagenase-3 Assay)
This assay is used in the invention to measure the potency (IC50s) of compounds for collagenase-3.
Human recombinant collagenase-3 is activated with 2 mM APMA (p-aminophenyl mercuric acetate) for about 2.0 hours, at about 37° C. and is diluted to about 240 ng/ml in assay buffer (50 mM Tris, pH 7.5, 200 mM sodium chloride, 5 mM calcium chloride, […], 0.02% BRIJ-35). Twenty-five micro-liters of diluted enzyme is added per well of a 96 well microfluor plate.
The final concentrations in the assay are 30 μM, 3 μM, 0.3 μM, and 0.03 μM.
Fluorescence readings (360 nm excitation; 450 nm emission) are taken at time 0 and about every 5 minutes for about 1 hour.
Positive controls and negative controls are set up in triplicate as outlined in the collagenase-1 assay. IC50's are determined as per inhibition of human collagenase (collagenase-1).

[5] = Table 2, aggrecanase chondrocyte assay, read-out: Agg (aggrecanase IC50 class)
[6] = Table 2, recombinant collagenase-3 assay, read-out: MMP-13 (IC50 class)

T1 sequence (P78536 215-824): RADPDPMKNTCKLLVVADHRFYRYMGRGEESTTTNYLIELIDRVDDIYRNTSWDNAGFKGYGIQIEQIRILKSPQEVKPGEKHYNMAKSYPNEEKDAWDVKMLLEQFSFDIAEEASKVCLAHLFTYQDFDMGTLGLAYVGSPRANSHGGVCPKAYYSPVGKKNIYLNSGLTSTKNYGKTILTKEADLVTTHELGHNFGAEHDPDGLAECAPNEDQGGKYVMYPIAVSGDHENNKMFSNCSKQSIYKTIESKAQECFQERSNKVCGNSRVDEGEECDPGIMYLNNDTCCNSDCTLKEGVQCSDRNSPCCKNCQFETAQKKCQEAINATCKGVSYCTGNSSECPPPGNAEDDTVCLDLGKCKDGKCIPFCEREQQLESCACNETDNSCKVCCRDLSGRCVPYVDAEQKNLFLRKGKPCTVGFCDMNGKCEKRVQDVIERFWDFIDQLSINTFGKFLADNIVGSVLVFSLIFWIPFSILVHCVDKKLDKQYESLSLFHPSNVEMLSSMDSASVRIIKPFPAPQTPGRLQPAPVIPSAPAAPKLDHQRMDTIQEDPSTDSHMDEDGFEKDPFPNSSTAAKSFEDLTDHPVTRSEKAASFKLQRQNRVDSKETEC

Compound | pIC50 [1] | pIC50 [2, 5] | pIC50 [3] | pIC50 [4, 6] | pIC50 ([4]; human recombinant enzyme, fluorogenic peptide substrate, read-out: Collagenase-3 IC50) | pIC50 ([2]; primary porcine chondrocytes, IL-1 (5 ng/ml), read-out: Aggrecanase IC50)
CNC(=O)N1CCN(S(=O)(=O)c2ccc(OCc3cc(F)ccc3C)cc2)[C@@H](C(=O)NO)[C@@H]1C | > 5.00 | > 8.00 | < 6.00 | > 8.00 |  | 
C[C@@]1(O)CCCN(S(=O)(=O)c2ccc(OCc3ccc(Cl)cc3Cl)cc2)[C@H]1C(=O)NO [(2R,3R) 1-[4-(2,4-dichloro-benzyloxy)-benzenesulfonyl]-3-hydroxy-3-methyl-piperidine-2-carboxylic acidhydroxyamide] | 4.70 to 5.00 | > 8.00 | 6.00 to 6.70 | > 8.00 |  | 
C[C@@]1(O)CCCN(S(=O)(=O)c2ccc(OCc3ccc(F)cc3F)cc2)[C@H]1C(=O)NO [(2R,3R) 1-[4-(2,4-difluoro-benzyloxy)-benzenesulfonyl]-3-hydroxy-3-methyl-piperidine-2-carboxylic acidhydroxyamide] | 4.70 to 5.00 | 7.70 to 8.00 | 6.00 to 6.70 | > 8.00 |  | 
Cc1ccc(F)cc1COc1ccc(S(=O)(=O)N2CC(=O)N[C@@H](C)[C@@H]2C(=O)NO)cc1 [(2R,3S) 1-[4-(2-methyl-5-fluoro-benzyloxy)-benzenesulfonyl]-3-methyl-5-oxo-piperazine-2-carboxylic acidhydroxyamide] | > 5.00 | > 8.00 | < 6.00 | 7.70 to 8.00 |  | 
CNC(=O)[C@H](Cc1ccc(OC)cc1)NC(=O)[C@@H](CC(=O)NO)CC(C)C [reference compound] |  |  |  |  | 9.00 | 
NS(=O)(=O)c1ccc(CCNC(=O)C(CC2CCCCC2)NC(=O)C(CCCc2ccccc2)CC(=O)NO)cc1 (centres unmarked) [reference compound] |  |  |  |  |  | 7.27

Next, values leading:

pIC50 [1] | pIC50 [2, 5] | pIC50 [3] | pIC50 [4, 6] | pIC50 ([4]; human recombinant enzyme, fluorogenic peptide substrate, read-out: Collagenase-3 IC50) | pIC50 ([2]; primary porcine chondrocytes, IL-1 (5 ng/ml), read-out: Aggrecanase IC50) | Compound
4.70 to 5.00 | > 8.00 | 6.00 to 6.70 | > 8.00 |  |  | C[C@@]1(O)CCCN(S(=O)(=O)c2ccc(OCc3ccc(F)cc3Cl)cc2)[C@H]1C(=O)NO [(2R,3R) 1-[4-(2-chloro-4-fluoro-benzyloxy)-benzenesulfonyl]-3-hydroxy-3-methyl-piperidine-2-carboxylic acidhydroxyamide]
> 5.00 | > 8.00 |  | > 8.00 |  |  | C[C@@]1(O)CCCN(S(=O)(=O)c2ccc(OCc3ccccc3Cl)cc2)[C@H]1C(=O)NO [(2R,3R) 1-[4-(2-chloro-benzyloxy)-benzenesulfonyl]-3-hydroxy-3-methyl-piperidine-2-carboxylic acidhydroxyamide]
< 4.40 | > 8.00 | 6.70 to 7.70 | > 8.00 |  |  | C[C@@]1(O)CCCN(S(=O)(=O)c2ccc(OCc3ccc(Cl)cc3F)cc2)[C@H]1C(=O)NO [(2R,3R) 1-[4-(2-fluoro-4-chloro-benzyloxy)-benzenesulfonyl]-3-hydroxy-3-methyl-piperidine-2-carboxylic acidhydroxyamide]
4.40 to 4.70 | 7.70 to 8.00 | 6.70 to 7.70 |  |  |  | C[C@@]1(O)CCCN(S(=O)(=O)c2ccc(OCc3ccccc3F)cc2)[C@H]1C(=O)NO [(2R,3R) 1-[4-(2-fluoro-benzyloxy)-benzenesulfonyl]-3-hydroxy-3-methyl-piperidine-2-carboxylic acidhydroxyamide]
> 5.00 | 7.70 to 8.00 | < 6.00 | > 8.00 |  |  | Cc1c(F)cccc1COc1ccc(S(=O)(=O)N2CCC[C@@](C)(O)[C@@H]2C(=O)NO)cc1 [(2R,3R) 1-[4-(2-methyl-3-fluorobenzyloxy)-benzenesulfonyl]-3-hydroxy-3-methyl-piperidine-2-carboxylic acidhydroxyamide]
> 5.00 | 7.70 to 8.00 |  | > 8.00 |  |  | Cc1ccc(F)cc1COc1ccc(S(=O)(=O)N2CCC[C@@](C)(O)[C@@H]2C(=O)NO)cc1 [(2R,3R) 1-[4-(2-methyl-5-fluorobenzyloxy)-benzenesulfonyl]-3-hydroxy-3-methyl-piperidine-2-carboxylic acidhydroxyamide]
> 5.00 | > 8.00 | 6.00 to 6.70 | > 8.00 |  |  | Cc1ccccc1COc1ccc(S(=O)(=O)N2CCC[C@@](C)(O)C2C(=O)NO)cc1 (stereo partly drawn) [(2R,3R) 1-[4-(2-methyl-benzyloxy)-benzenesulfonyl]-3-hydroxy-3-methyl-piperidine-2-carboxylic acidhydroxyamide]
> 5.00 | > 8.00 |  | > 8.00 |  |  | Cc1cc(F)ccc1COc1ccc(S(=O)(=O)N2CCC[C@@](C)(O)[C@@H]2C(=O)NO)cc1 [(2R,3R) 1-[4-(4-fluoro-2-methyl-benzyloxy)-benzenesulfonyl]-3-hydroxy-3-methyl-piperidine-2-carboxylic acidhydroxyamide]
> 5.00 | 7.70 to 8.00 | 6.00 to 6.70 | > 8.00 |  |  | Cc1ccccc1COc1ccc(S(=O)(=O)N2CCC[C@](C)(O)[C@@H]2C(=O)NO)cc1 [(2R,3S) 1-[4-(2-methyl-benzyloxy)-benzenesulfonyl]-3-hydroxy-3-methyl-piperidine-2-carboxylic acidhydroxyamide]
